Laboratory results reported in patent publication US6887202B2, “Systems and methods for monitoring health and delivering drugs transdermally” (Science Applications International Corporation, priority 2000, dated 2005).
Read-outs that look alike come from different tables or passages of the source.

Key:
[1] = biological target: T1, α3/β4 nAChR (Rattus norvegicus, UniProt P04757+P12392); experiment: Frontal chromatography with α3/β4 nAChR-IAM stationary phase ([3H]-EB marker); type: binding
T1 construct: expressed in transfected cells
T1 sequence (P04757 26-499): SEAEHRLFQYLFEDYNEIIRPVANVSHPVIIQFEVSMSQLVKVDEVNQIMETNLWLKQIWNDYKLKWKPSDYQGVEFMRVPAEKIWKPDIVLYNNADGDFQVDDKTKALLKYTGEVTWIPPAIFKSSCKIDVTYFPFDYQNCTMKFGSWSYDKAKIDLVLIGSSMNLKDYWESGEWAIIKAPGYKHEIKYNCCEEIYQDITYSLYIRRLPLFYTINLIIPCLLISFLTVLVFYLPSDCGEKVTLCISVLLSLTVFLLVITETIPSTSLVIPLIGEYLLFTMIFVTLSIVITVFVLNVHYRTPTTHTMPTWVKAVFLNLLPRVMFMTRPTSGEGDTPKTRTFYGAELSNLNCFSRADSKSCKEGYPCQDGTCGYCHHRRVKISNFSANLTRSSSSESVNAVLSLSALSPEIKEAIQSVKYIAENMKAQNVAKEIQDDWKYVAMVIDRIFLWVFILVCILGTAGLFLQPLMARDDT
T1 sequence (P12392 21-495): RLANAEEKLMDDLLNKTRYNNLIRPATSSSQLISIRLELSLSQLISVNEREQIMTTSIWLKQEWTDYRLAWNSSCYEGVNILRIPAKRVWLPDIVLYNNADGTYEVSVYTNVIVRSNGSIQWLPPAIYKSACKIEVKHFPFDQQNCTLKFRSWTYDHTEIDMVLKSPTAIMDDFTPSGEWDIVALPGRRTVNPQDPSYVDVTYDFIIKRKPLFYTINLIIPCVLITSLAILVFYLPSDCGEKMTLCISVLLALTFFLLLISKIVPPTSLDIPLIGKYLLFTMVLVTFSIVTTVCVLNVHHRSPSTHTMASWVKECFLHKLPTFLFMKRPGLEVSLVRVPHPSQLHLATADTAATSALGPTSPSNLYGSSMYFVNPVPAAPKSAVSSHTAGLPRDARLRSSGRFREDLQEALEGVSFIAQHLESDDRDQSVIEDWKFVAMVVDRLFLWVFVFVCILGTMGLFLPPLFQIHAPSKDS
Experimental: Rat whole forebrain or transfected cells are suspended in 50 mM Tris-HCI, pH 7.4, (buffer A), homogenized for 30 seconds with Brinkmann Polytron, and centrifuged at 40,000×g for 10 min at 4° C. The pellet is resuspended in 6 ml of 2% deoxycholate or 2% cholate in buffer A and stirred for 2 hours. The mixture is centrifuged at 35,000×g for 30 minutes, and the supernatant containing nAChR-deoxycholate solution is collected.
Dried IAM particles are suspended in 4 ml of the obtained detergent solutions containing nAChR subunits or subtypes. For the immobilization of one nAChR subtype, the mixture of IAM-detergent-receptor is stirred for 1 hour at room temperature. The suspension is dialyzed against 2×1 L buffer A for 24 hours at 4° C. The IAM LC support with immobilized nAChRs is then washed with buffer A, centrifuged and the solid collected.
Chromatography based on nAChR-LAMcolumn or nAChR-liposome-Superdex 200 column: The nAChR-IAM particles or nAChR-Superdex gel beads are packed in a HR5/2 glass column and connected to a HPLC pump. […] All chromatographic experiments are performed at flow rate 0.4 ml/min at room temperature.
The chromatographic data is summed up in 1-min intervals and smoothed using the Microsoft Excel program with a 10 point moving average.

[2] = biological target: T1, α3/β4 nAChR; experiment: Ligand binding assay using cell membrane homogenates
[3] = biological target: GABAA receptor; experiment: Frontal chromatography on immobilized GABAA receptor (GR-IAM), [3H]-flunitrazepam marker; type: binding, rat
Experimental: Supernatant is discarded.
All chromatographic experiments are performed at flow rate 0.4 ml/min at room temperature. […] The chromatographic data is summed up in 1-min intervals and smoothed using the Microsoft Excel program with a 10 point moving average.

[4] = biological target: GABAA receptor; details: read-out: Kd, Binding Assays; classical binding assays
[5] = a3/(34-IAM stationary phase (0.5 × 1.3 cm)), read-out: Kd (frontal chromatography)

For `c1cncc(OC[C@@H]2CCN2)c1` [A85380], which Kd [1, 5] is on record?
The Kd was 0.0172 ± 0.0005 µM.

And the “mobile phase concentration required to decrease the retention volume of 60 pM [3H]-EB from 9.5 ml to 6 ml” value ([1]; α3/β4 nAChR column (0.5×1.25 cm))?
Its value is 1.7 nM.

And the Kd [2]?
The Kd was 0.0736 ± 0.0063 µM.

What does the source list for `CN1C(=O)CN=C(c2ccccc2)c2cc(Cl)ccc21` [Diazepam]?
Kd [3]: 0.001 µM; Kd [4]: 0.0013 µM

With `CN1CCCC1c1cccnc1` (single isomer, unassigned; (-)) [(−)-Nicotine] as the compound, how does the “mobile phase concentration required to decrease the retention volume of 60 pM [3H]-EB from 9.5 ml to 6 ml” value [1] read?
Its value is 45 nM.

For `CN1[C@@H]2CC[C@H]1C[C@@H](OC(=O)C(CO)c1ccccc1)C2` (stereo partly shown) [Atropine], which Kd [1] is on record?
Its Kd is 14.6 µM.

How did the “mobile phase concentration required to decrease the retention volume of 60 pM [3H]-EB from 9.5 ml to 6 ml” value [1] turn out when `C[N+](C)(C)CCOC(N)=O` [Carbachol] was run?
Its value is 1,200 nM.

What about the Kd [1, 5] of the same compound?
The Kd was 1.28 µM.

What about the Kd [2] of the same compound?
Its Kd is 3.84 µM.
